This assay deals with T1, PKCε (Homo sapiens, UniProt Q02156).
T1 sequence (Q02156 1-737): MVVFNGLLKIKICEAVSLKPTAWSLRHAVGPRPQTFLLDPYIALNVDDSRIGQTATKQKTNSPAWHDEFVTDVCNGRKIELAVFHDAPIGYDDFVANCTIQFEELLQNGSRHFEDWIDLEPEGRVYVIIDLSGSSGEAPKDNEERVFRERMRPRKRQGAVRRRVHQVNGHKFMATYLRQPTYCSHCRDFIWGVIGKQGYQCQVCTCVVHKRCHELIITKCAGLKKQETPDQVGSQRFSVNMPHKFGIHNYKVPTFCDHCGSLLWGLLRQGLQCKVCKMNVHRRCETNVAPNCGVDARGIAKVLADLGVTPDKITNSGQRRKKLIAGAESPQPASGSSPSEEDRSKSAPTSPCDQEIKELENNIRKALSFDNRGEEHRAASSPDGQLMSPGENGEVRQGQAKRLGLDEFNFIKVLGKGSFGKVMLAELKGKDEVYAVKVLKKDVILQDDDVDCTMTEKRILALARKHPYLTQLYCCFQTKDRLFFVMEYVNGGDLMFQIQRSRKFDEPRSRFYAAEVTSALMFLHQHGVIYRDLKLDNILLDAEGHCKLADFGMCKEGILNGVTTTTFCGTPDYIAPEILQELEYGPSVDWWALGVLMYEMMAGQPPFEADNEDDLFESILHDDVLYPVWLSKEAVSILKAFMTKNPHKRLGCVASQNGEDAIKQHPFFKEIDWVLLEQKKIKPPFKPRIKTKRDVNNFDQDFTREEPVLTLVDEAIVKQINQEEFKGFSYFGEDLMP
The assay is described as follows: Lance-FRET kinase assay, PKCε. It counts as biochemical. The arrangement: His; AVI; made in house; host or cells: Sf9 cells. The method, then: Kinase assays. CP612 was assayed against His-AVI–tagged human PKCε (1 nM) produced in Sf9 cells, and ROCK1 (Carna Biosciences; 5 nM) using the Lance-FRET kinase assay system (PerkinElmer Revvity). Other human recombinant PKCs (SignalChem Biotech) were assayed in triplicate at the following concentrations: PKCβII 1.6 nM, PKCγ 500 pM, PKCδ 5 nM, PKCθ 500 pM, and PKCζ 500 pM. PKCs were incubated in a 15 μL reaction volume with kinase buffer (20 mM Tris-HCL [pH 7.4], 10 mM MgCl2, 0.25 mM EGTA, 0.1 mg/mL BSA, and 0.15% Triton X-100), 50 nM ULight-labeled CREBtide […] (PerkinElmer, TRF0107, Revvity), and test compound. Reactions were initiated by adding 2.5 μM ATP at 27°C and were terminated after 60 minutes with 10 μL of 2.5× Stop Solution/Detection Mix containing 20 mM EDTA and 4 nM LANCE Ultra Europium anti–phospho-[…] (Ala25Ser) peptide antibody (PerkinElmer, TRF0200, Revvity). After incubation at 27°C for another 60 minutes, phosphorylation was detected using a FlexStation 3 Microplate Reader (Molecular Devices) in LANCE TR-FRET mode (excitation = 340 nm, emission = 665 nm) and expressed as relative fluorescence units (RFU). The percentage of inhibition was calculated as: (signal without test compound − signal with test compound)/(signal without test compound − signal without ATP) × 100. The Z’ factor for this assay ranged between 0.72 and 0.86.
Kinase assays used 11-point concentration-response curves and results were analyzed by nonlinear regression using Prism 9 (GraphPad Software) to determine IC50 values. Other analyses were performed on Prism 9 and Statistica (Tibco Software). Scores for pain threshold, conditioned place preference, and self-administration were analyzed by ANOVA using the following factors. […] We used a Tukey’s test for post hoc comparisons across groups and Dunnett’s test for post hoc comparisons with own pain thresholds at baseline values in the pain studies. Somatic withdrawal scores were analyzed with a Kruskal-Wallis test due to the nonparametric nature of those data, followed by nonparametric post hoc comparisons according to Siegel and Castellan ([40]). A P value less than 0.05 was considered significant.

Where two headings read alike, the source gives them in different places.

In the case of `N[C@H](CNC(=O)C1(c2ccc(Cl)cc2)CCCC1)c1ccc(C(=O)Nc2ccncc2)cc1` [CP612], the inhibition (usually the percentage by which the read-out fell short of the control) at 0.03 µM (30 nM CP612, read-out: Inhibition of novel PKCs (PKCε)) was over 50%. Moreover, the “Relative potency within the nPKC subfamily” value (Figure 1B) is given as “most potent”. Besides, the IC50 (as a rule, the concentration that gives 50% inhibition) is, setting by setting: (Figure 1B PKC isozyme panel, read-out: IC50 PKCε) 2.03 nM; (mean of all runs (count 42 CP612; 38 CIDD-0072424), 2.5 μM ATP, read-out: IC50 (nM) [Enzyme: PKCε], mean) 1.9 ± 0.4 nM. Further, the “ROCK1/PKCε ratio, mean” value (mean of ratios of all runs) is recorded as 54.8.

These data come from article PMC12016938, “A small molecule PKCε inhibitor reduces hyperalgesia induced by paclitaxel or opioid withdrawal” (JCI Insight, 2025).
